{"source": "patent US20100179220A1", "about": "“METHOD FOR THE TREATMENT OF TINNITUS” (Merck Patent GmbH, priority 2006, published 2010)", "key": {"[1]": {"tested_on": "patients with sensorineural tinnitus", "assay": "randomized double-blind placebo-controlled clinical trial of acamprosate in tinnitus", "assay_type": "in vivo, human", "parameters": "key to tinnitus scale, Mean / tinnitus scale, Median / tinnitus scale, Minimum / tinnitus scale, Maximum: tinnitus disturbance score, 0 to 10 (0.5 steps allowed)", "procedure": "We selected 50 patients with tinnitus seen at OTOSUL, Otorrinolaringologia Sul-fluminense, Hospital São Camilo, Volta Redonda, R J, between October 2003 and October 2004. The inclusion criteria were tinnitus of sensorineural etiology, excluding the cases of external and middle ear disease and concomitant temporomandibular joint disorders. Pure tone audiometry, vocal audiometry and immittanciometry were performed in all patients, and we excluded those with conductive and mixed hearing loss and those with tympanogram curve types A-r, A-d, C and B. The audiometer used was AMPLAID A 177 PLUS, and the Immittanciometer was AMPLAID 750. We considered the thresholds up to 25 dB (normal hearing), 26 to 40 dB (mild loss), 41 to 70 dB (moderate loss), 71 to 90 dB (severe loss) and over 90 dB (profound loss).\nThe patients were classified according to the following parameters:\nage, gender, continuous or intermittent tinnitus, uni or bilateral tinnitus, tinnitus characteristics (type of associated noise), time of tinnitus, associated symptoms (hypo and hyper loss, dizziness, ear fullness), probable tinnitus etiology, previous use of drugs to treat tinnitus, and baseline tinnitus score, given by the patient, ranging from 0 to 10, according to how much it disturbed the patient\nPatients were asked to score tinnitus from 1 to 10 according to how much they were disturbed by it. We allowed 0.5 scores as well.\nPatients were randomly divided into 2 groups of 25 patients: one group received acamprosate 333 mg, TID, and the other received placebo, TID, both groups for 90 days. All details of the study were clarified to the patients by the assistant physician and they all signed the informed consent term. It was a double-blind study approved by the Medical Ethical Committee, Hospital São Camilo.\nPatients were analyzed at days 30, 60 and 90 after use of the drug and at each visit, the patient scored the tinnitus status, as well as reported side effects.\nThe statistical analysis was performed based on the following methods:\nt Student test for independent samples or the Mann-Whitney test to compare quantitative data between the two groups (acamprosate and placebo) chi-square test or Fisher exact test to compare qualitative data, Friedman Variance Analysis to analyze the progression of tinnitus scale (quantitative data) throughout time (four assessments within 3 months) with the treatment with acamprosate and placebo.\nThe test of multiple comparisons based on the statistics of Friedman was applied to identify which moments were different. The test of multiple comparisons is a test complementary to Variance Analysis.\nThe criterion for determination of significance was adopted as 5%, that is, when p value of the statistical test was smaller or equal to 0.05, meaning there was statistical significance. The statistical analysis was processed by the statistical software SAS System."}, "GABA reuptake sites": {"tested_on": "GABA reuptake sites", "conditions": "rats; cited from earlier work"}, "patients with tinnitus": {"tested_on": "patients with tinnitus", "conditions": "cited from earlier work; for improvement of tinnitus: literature studies, only baclofen and caroverine double blind placebo-controlled"}, "[2]": {"conditions": "acamprosate 333 mg TID, 90 days, n=23"}}, "note": "Where “and” joins values, the source holds several entries; their conditions need not be identical. Identical values can stand only once."}
{"smiles": "CC(=O)NCCCS(=O)(=O)O", "note": "[acamprosate, calcium acetyl-homotaurinate]", "values": [{"measurement": "tinnitus scale, Maximum", "setting": "[1]; Baseline, n=23", "result": 10}, {"measurement": "tinnitus scale, Mean", "setting": "[1]; Baseline, n=23", "result": 6.74}, {"measurement": "tinnitus scale, Median", "setting": "[1]; Baseline, n=23", "result": 7}, {"measurement": "tinnitus scale, Minimum", "setting": "[1]; Baseline, n=23", "result": 3}, {"measurement": "tinnitus scale, Maximum", "setting": "[1]; Score 30 d, 333 mg TID, n=23", "result": 10}, {"measurement": "tinnitus scale, Mean", "setting": "[1]; Score 30 d, 333 mg TID, n=23", "result": 5.39}, {"measurement": "tinnitus scale, Median", "setting": "[1]; Score 30 d, 333 mg TID, n=23", "result": 5}, {"measurement": "tinnitus scale, Minimum", "setting": "[1]; Score 30 d, 333 mg TID, n=23", "result": 2}, {"measurement": "tinnitus scale, Maximum", "setting": "[1]; Score 60 d, 333 mg TID, n=23", "result": 9}, {"measurement": "tinnitus scale, Mean", "setting": "[1]; Score 60 d, 333 mg TID, n=23", "result": 3.98}, {"measurement": "tinnitus scale, Median", "setting": "[1]; Score 60 d, 333 mg TID, n=23", "result": 4}, {"measurement": "tinnitus scale, Minimum", "setting": "[1]; Score 60 d, 333 mg TID, n=23", "result": 0}, {"measurement": "tinnitus scale, Maximum", "setting": "[1]; Score 90 d, 333 mg TID, n=23", "result": 10}, {"measurement": "tinnitus scale, Mean", "setting": "[1]; Score 90 d, 333 mg TID, n=23", "result": 2.87}, {"measurement": "tinnitus scale, Median", "setting": "[1]; Score 90 d, 333 mg TID, n=23", "result": 2}, {"measurement": "tinnitus scale, Minimum", "setting": "[1]; Score 90 d, 333 mg TID, n=23", "result": 0}, {"measurement": "worsening in score", "setting": "[1]; acamprosate 333 mg TID, 90 days", "result": "no worsening in score has been observed"}, {"measurement": "severity of observed side effects", "setting": "[1]; acamprosate 333 mg TID, 90 days, epigastralgia, choking", "result": "mild"}, {"measurement": "patients who did not report improvement", "setting": "[1]; [2]", "result": 13.04, "unit": "%"}, {"measurement": "patients who reported improvement below 50%", "setting": "[1]; [2]", "result": 39.13, "unit": "%"}, {"measurement": "subjects who reported that tinnitus had disappeared", "setting": "[1]; [2]", "result": 13.04, "unit": "%"}, {"measurement": "incidence of side effects", "setting": "[1]; acamprosate 333 mg TID, 90 days, placebo 20%, p=0.35", "result": 12, "unit": "%"}, {"measurement": "proportion of improvement at 90 days equal or greater than 50%", "setting": "[1]; acamprosate 333 mg TID, 90 days, subjective tinnitus score, placebo 11.1%, p=0.012", "result": "47.8% and 47.83%"}, {"measurement": "patients who interrupted treatment before the end of assessment", "setting": "[1]; acamprosate group of 25, placebo 7", "result": 2}, {"measurement": "patients who suspended treatment owing to side effects", "setting": "[1]; acamprosate group, 50% of those who interrupted", "result": "One"}, {"measurement": "variation of tinnitus scale as a result of time (Friedman Variance Analysis)", "setting": "[1]; baseline, 30, 60, 90 days, 333 mg TID, p<0.0001", "result": "significant decrease"}, {"measurement": "effect on GABA reuptake sites and GABA transmission", "setting": "GABA reuptake sites", "result": "increases the number of reuptake sites of GABA"}]}
{"smiles": "NCC(CC(=O)O)c1ccc(Cl)cc1", "note": "(stereo not drawn) [baclofen]", "values": [{"measurement": "improvement of tinnitus", "setting": "patients with tinnitus", "result": "about 9.7%"}]}
{"smiles": "NC(=O)N1c2ccccc2C=Cc2ccccc21", "note": "[carbamazepine]", "values": [{"measurement": "improvement, % of the cases of tinnitus", "setting": "patients with tinnitus; progressively increasing doses of 50 to 600 mg a day, defined by positive lidocaine test", "result": 50, "unit": "%"}]}
{"smiles": "CCN(CC)CCn1c(=O)c(Cc2ccc(OC)cc2)nc2ccccc21", "note": "[caroverine]", "values": [{"measurement": "improvement of tinnitus", "setting": "patients with tinnitus", "result": 63.3, "unit": "%"}]}
{"smiles": "O=C1CN=C(c2ccccc2Cl)c2cc([N+](=O)[O-])ccc2N1", "note": "[clonazepam]", "values": [{"measurement": "improvement of tinnitus", "setting": "patients with tinnitus", "result": 32, "unit": "%"}]}
{"smiles": "c1cnc(N2CCN(Cc3ccc4c(c3)OCO4)CC2)nc1", "note": "[piribedil]", "values": [{"measurement": "improvement of tinnitus", "setting": "patients with tinnitus", "result": 92.6, "unit": "%"}]}
{"smiles": "COc1ccc(CN2CCNCC2)c(OC)c1OC", "note": "[trimetazidine]", "values": [{"measurement": "improvement of tinnitus", "setting": "patients with tinnitus", "result": 89, "unit": "%"}]}
